Values after ≈ are worked out from the molar mass of the structure shown.
Experiment: Phase solubility study with cyclodextrins (β-CDs, HP-β-CDs) in galega water, spectrophotometric titration
Type: physicochemical
Experimental: The inventors performed solubility studies in an aqueous media in the absence and presence of solvents and in the presence of increasing concentrations of different types of CDs (β-CDs and HP-β-CDs).
According to the traditional interpretation, this study was carried out using the solubility method.
On the other hand, further sea buckthorn oil solubilization tests were performed with galega water solutions containing 80 mM HP-β-cyclodextrin and another solution with 10 mM β-cyclodextrin.

Oc1ccc(C=Cc2cc(O)cc(O)c2)cc1 [Resveratrol, resveratrol]
solubility thermodynamic at 60 min (25 °C, water, thermodynamic from solid): 40 µg/mL (≈ 175 µM) | solubility of resveratrol (in absence of CDs, galega water): 0.025 mg/mL
